Assay: Oxidative stress, Example 29 (α-hANP, hydrogen peroxide, HPLC)
Format: physicochemical
Conditions: 0.1 mg/mL, solution E pH 4.8, 0.2% hydrogen peroxide, 37° C., one hour
Procedure: A gel preparation 29-48 of formulation 48 containing 0.1 mg/mL of α-hANP was prepared in an amount of 500 μL in a microtube, in the same manner as in the preparing method in (1) of Example 2, while using a solution E (pH 4.8) containing 37.5 mg/mL of D-mannitol and 5 mg/mL of glycine, in place of the solution A. Then, 50 μL of 0.2% hydrogen peroxide was added to the gel preparation, followed by incubation at 37° C. for one hour. Immediately after the incubation, 200 μL of 0.4 M methionine and 250 μL of water were added to the sample, and the gel preparation was disintegrated by a microspatula. The sample was then centrifuged, the supernatant was filtered through a membrane filter to remove aggregates, and the amount of α-hANP contained in the solution was determined by the HPLC method. Note that this experiment was conducted with N=2, and the remaining rate of α-hANP was expressed based on the starting amount. Besides, as a control, an α-hANP solution prepared by dissolving α-hANP in the solution E so as to obtain a concentration of 0.1 mg/mL was subjected to the same process as above, exclusive of the disintegrating operation by the microspatula.

## CC[C@H](C)[C@@H]1NC(=O)[C@H](CCCNC(=N)N)NC(=O)[C@H](CC(=O)O)NC(=O)[C@H](CCSC)NC(=O)[C@H](CCCNC(=N)N)NC(=O)CNC(=O)CNC(=O)[C@H](Cc2ccccc2)NC(=O)[C@@H](NC(=O)[C@H](CO)NC(=O)[C@H](CO)NC(=O)[C@H](CCCNC(=N)N)NC(=O)[C@H](CCCNC(=N)N)NC(=O)[C@H](CC(C)C)NC(=O)[C@@H](N)CO)CSSC[C@@H](C(=O)N[C@@H](CC(N)=O)C(=O)N[C@@H](CO)C(=O)N[C@@H](Cc2ccccc2)C(=O)N[C@@H](CCCNC(=N)N)C(=O)N[C@@H](Cc2ccc(O)cc2)C(=O)O)NC(=O)CNC(=O)[C@H](CC(C)C)NC(=O)CNC(=O)[C@H](CO)NC(=O)[C@H](CCC(N)=O)NC(=O)[C@H](C)NC(=O)CNC1=O [α-hANP solution, α-human atrial natriuretic polypeptide]
  Remaining rate of α-hANP after loaded with oxidative stress, run 1: 65.4%
  Remaining rate of α-hANP after loaded with oxidative stress, run 2: 64.7%

Source: patent publication US20200261584A1, “STABILIZED PROTEIN GEL PREPARATION” (TERUMO KABUSHIKI KAISHA, priority 2013, published 2020)
